Data on 27 compounds can be found in US10189854B2, “Substituted pyrimidine compounds” (Grünenthal GmbH, priority 2014, dated 2019).

This experiment concerns the target human PDE4B1 (Homo sapiens (Human), UniProt Q07343). Nature of the experiment: TR-FRET assay using the LANCE Ultra cAMP kit to determine the activity of hPDE4B1. The format is biochemical. The following applies: IC50 inhibition of PDE4B, mean. In short, it runs like this: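 Recombinant human PDE4B1 (Sf9-expressed, 0.96 U) incubated with compound and 500 nM cAMP in 50 mM Tris-HCl, 50 mM MgCl2, 5 mM DTT, pH 8.5, 30 min at room temperature. Residual cAMP read by TR-FRET (665/620 nm ratio) after IBMX stop. IC50 from ten-concentration curves as % inhibition of control.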
In general terms: In TR-FRET formats the signal depends on donor and acceptor labels being close together.

human PDE4B1, sequence (Q07343 whole entry): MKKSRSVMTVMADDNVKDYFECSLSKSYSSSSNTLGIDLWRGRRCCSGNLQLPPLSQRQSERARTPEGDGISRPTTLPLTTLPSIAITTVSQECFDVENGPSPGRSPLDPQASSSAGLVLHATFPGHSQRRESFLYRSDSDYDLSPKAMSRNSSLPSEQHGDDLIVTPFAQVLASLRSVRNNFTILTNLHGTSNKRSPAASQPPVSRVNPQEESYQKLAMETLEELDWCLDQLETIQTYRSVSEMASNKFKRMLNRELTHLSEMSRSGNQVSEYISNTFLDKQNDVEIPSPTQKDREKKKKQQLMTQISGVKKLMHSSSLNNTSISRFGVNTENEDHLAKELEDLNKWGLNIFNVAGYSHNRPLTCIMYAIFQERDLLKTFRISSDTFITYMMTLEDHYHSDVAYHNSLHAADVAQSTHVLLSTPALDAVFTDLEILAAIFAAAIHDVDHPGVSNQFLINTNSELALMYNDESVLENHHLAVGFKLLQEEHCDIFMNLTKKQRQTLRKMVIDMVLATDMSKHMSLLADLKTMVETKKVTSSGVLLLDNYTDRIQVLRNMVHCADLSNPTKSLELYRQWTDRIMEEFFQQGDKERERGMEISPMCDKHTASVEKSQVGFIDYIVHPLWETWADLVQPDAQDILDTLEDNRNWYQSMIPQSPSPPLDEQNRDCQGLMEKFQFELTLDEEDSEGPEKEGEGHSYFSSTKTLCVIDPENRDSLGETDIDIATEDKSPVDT

On to `CN(CCO)C(=O)c1ccc2c(c1)N(c1ncc(-c3cc(N4CCCC4)ccn3)cn1)CC21CC1` [Compound 315, N-(2-Hydroxy-ethyl)-N-methyl-1-[5-(4-pyrrolidin-1-yl-pyridin-2-yl)-pyrimidin-2-yl]-spiro[1,2-dihydro-indole-3,1′-cyclopropane]-6-carboxylic acid amide], for which the IC50 (as a rule, the concentration that gives 50% inhibition) was under 0.1 µM.
The compound `O=C(c1ccc2c(c1)N(c1ncc(-c3ccccc3F)cn1)CC21CC1)N1C[C@H]2C[C@@H]1CN2` [Compound 220, [(1R,4R)-2,5-Diazabicyclo[2.2.1]heptan-2-yl]-[1-[5-(2-fluorophenyl)-pyrimidin-2-yl]spiro[1,2-dihydro-indole-3,1′-cyclopropane]-6-yl]-methanone] registered an IC50 of 0.1 to 1 µM.
The result for `Cc1cccc(-c2cnc(N3CC4(CC4)c4ccc(C(=O)N(C)CC(N)=O)cc43)nc2)n1` [Compound 307, N-(Carbamoyl-methyl)-N-methyl-1-[5-(6-methyl-pyridin-2-yl)-pyrimidin-2-yl]-spiro[1,2-dihydro-indole-3,1′-cyclopropane]-6-carboxylic acid amide] reads under 0.1 µM; that for `Cc1cc(C)nc(-c2cnc(N3CC4(CC4)c4ccc(C(=O)N(C)CCO)cc43)nc2)c1` [Compound 260, 1-[5-(4,6-Dimethyl-pyridin-2-yl)-pyrimidin-2-yl]-N-(2-hydroxy-ethyl)-N-methyl-spiro[1,2-dihydro-indole-3,1′-cyclopropane]-6-carboxylic acid amide], under 0.1 µM; that for `O=C(c1ccc2c(c1)N(c1ncc(-c3ccccc3F)cn1)CC21CC1)N1C[C@@H]2C[C@H]1CN2` [Compound 221, [(1S,4S)-2,5-Diazabicyclo[2.2.1]heptan-2-yl]-[1-[5-(2-fluorophenyl)-pyrimidin-2-yl]-spiro[1,2-dihydro-indole-3,1′-cyclopropane]-6-yl]-methanone], under 0.1 µM.
Next, `CN(C)c1ccnc(-c2cnc(N3CC4(CC4)c4ccc(C(=O)N5CCNC(=O)C5)cc43)nc2)c1` [Compound 255]: under 0.1 µM.
Next, `CN(CCO)C(=O)c1ccc2c(c1)N(c1ncc(-c3cc(NCC4CC4)ccc3F)cn1)CC21CC1` [Compound 333, 1-[5-[5-(Cyclopropyl-methylamino)-2-fluoro-phenyl]-pyrimidin-2-yl]-N-(2-hydroxy-ethyl)-N-methyl-spiro[1,2-dihydro-indole-3,1′-cyclopropane]-6-carboxylic acid amide]: under 0.1 µM.
Consider `O=C(c1ccc2c(c1)N(c1ncc(-c3cc(N4CCCC4)ccn3)cn1)CC21CC1)N1CCOCC1` [Compound 291, Morpholin-4-yl-[1-[5-(4-pyrrolidin1--yl-pyridin-2-yl)-pyrimidin-2-yl]-spiro[1,2-dihydro-indole-3,1′-cyclopropane]-6-yl]-methanone], for which the IC50 is under 0.1 µM.
Next, `Cc1nc(-c2cnc(N3CC4(CC4)c4ccc(C(=O)N(C)CCO)cc43)nc2)cs1` [Compound 324, N-(2-Hydroxy-ethyl)-N-methyl-1-[5-(2-methyl-thiazol-4-yl)-pyrimidin-2-yl]-spiro[1,2-dihydro-indole-3,1′-cyclopropane]-6-carboxylic acid amide]: under 0.1 µM; `CN(CCO)C(=O)c1ccc2c(c1)N(c1ncc(-c3cc(C(F)(F)F)ccc3F)cn1)CC21CC1` [Compound 365, 1-[5-[2-Fluoro-5-(trifluoromethyl)-phenyl]-pyrimidin-2-yl]-N-(2-hydroxy-ethyl)-N-methyl-spiro[1,2-dihydro-indole-3,1′-cyclopropane]-6-carboxylic acid amide]: under 0.1 µM.
The result for `CN(CCO)C(=O)c1ccc2c(c1)N(c1ncc(-c3cccc([S+](C)[O-])c3)cn1)CC21CC1` (stereo not drawn) [Compound 281, N-(2-Hydorxy-ethyl)-N-methyl-1-[5-[3-(methylsulfinyl)-phenyl]pyrimidin-2-yl]-spiro[1,2-dihydro-indole-3,1′-cyclopropane]-6-carboxylic acid amide] reads under 0.1 µM; that for `C[C@H](O)CN1CCN(C(=O)c2ccc3c(c2)N(c2ncc(-c4ccccc4F)cn2)CC32CC2)CC1` [Compound 240, [1-[5-(2-Fluorophenyl)-pyrimidin-2-yl]-spiro[1,2-dihydro-indole-3,1′-cyclopropane]-6-yl]-[4-[(2S)-2-hydroxy-propyl]-piperazin-1-yl]-methanone], 0.1 to 1 µM; that for `O=C(c1ccc2c(c1)N(c1ncc(-c3cc(C4(O)CC4)ccn3)cn1)CC21CC1)N1CCOCC1` [Compound 351, [1-[5-[4-(1-Hydroxy-cyclopropyl)-pyridin-2-yl]-pyrimidin-2-yl]-spiro[1,2-dihydro-indole-3,1′-cyclopropane]-6-yl]-morpholin-4-yl-methanone], under 0.1 µM.
The result for `Cc1cnnc(-c2cnc(N3CC4(CC4)c4ccc(C(=O)N(C)CCO)cc43)nc2)c1` [Compound 290, N-(2-hydroxyethyl)-N-methyl-1′-(5-(5-methylpyridazin-3-yl)pyrimidin-2-yl)spiro[cyclopropane-1,3′-indoline]-6′-carboxamide] reads under 0.1 µM; that for `CC(CO)N(C)C(=O)c1ccc2c(c1)N(c1ncc(-c3ccccc3F)cn1)CC21CC1` (stereo not drawn) [Compound 285, 1-[5-(2-Fluorophenyl)-pyrimidin-2-yl]-N-(2-hydroxy-1-methyl-ethyl)-N-methyl-spiro[1,2-dihydro-indole-3,1′-cyclopropane]-6-carboxylic acid amide], under 0.1 µM.
Take `O=C(c1ccc2c(c1)N(c1ncc(-c3cccc(F)c3)cn1)CC21CC1)N1CC2CC1CN2` (stereo not drawn) [Compound 223, (2,5-Diazabicyclo[2.2.1]heptan-2-l)-[1-[5-(3-fluorophenyl)-pyrimidin-2-yl]-spiro[1,2-dihydro-indole-3,1′-cyclopropane]-6-yl]-methanone]: the IC50 is under 0.1 µM.
The result for `Cc1cccc(-c2cnc(N3CC4(CC4)c4ccc(C(=O)N5CCNC(=O)C5)cc43)nc2)n1` [Compound 286, 4-[1-[5-(6-Methyl-pyridin-2-yl)-pyrimidin-2-yl]-spiro[1,2-dihydro-indole-3,1′-cyclopropane]-6-carbonyl]-piperazin-2-one] reads under 0.1 µM.
Next, `CC(=O)Nc1ccnc(-c2cnc(N3CC4(CC4)c4ccc(C(=O)N5CCOCC5)cc43)nc2)c1` [Compound 346, N-[2-[2-[6-(Morpholine-4-carbonyl)-spiro[1,2-dihydro-indole-3,1′-cyclopropane]-1-yl]-pyrimidin-5-yl]-pyridin-4-yl]-acetamide]: under 0.1 µM.
The compound `O=C(c1ccc2c(c1)N(c1ncc(-c3ccccc3)cn1)CC21CC1)N1C[C@@H]2C[C@H]1CN2` [Compound 249, [(1S,4S)-2,5-Diazabicyclo[2.2.1]heptan-2-yl]-[1-(5-phenyl-pyrimidin-2-yl)-spiro[1,2-dihydro-indole-3,1′-cyclopropane]-6-yl]-methanone] had an IC50 of under 0.1 µM.
Next, `CCc1ccnc(-c2cnc(N3CC4(CC4)c4ccc(C(=O)N(C)CC(N)=O)cc43)nc2)c1` [Compound 308, N-(Carbamoyl-methyl)-1-[5-(4-ethyl-pyridin-2-yl)-pyrimidin-2-yl]-N-methyl-spiro[1,2-dihydro-indole-3,1′-cyclopropane]-6-carboxylic acid amide]: under 0.1 µM.
The result for `CN(CCO)C(=O)c1ccc2c(c1)N(c1ncc(-c3cc(C4CC4)ccn3)cn1)CC21CC1` [Compound 254, 1-[5-(4-Cyclopropyl-pyridin-2-yl)-pyrimidin-2-yl]-N-(2-hydroxy-ethyl)-N-methyl-spiro[1,2-dihydro-indole-3,1′-cyclopropane]-6-carboxylic acid amide] reads under 0.1 µM; that for `CC(C)c1ccnc(-c2cnc(N3CC4(CC4)c4ccc(C(=O)N(C)CCO)cc43)nc2)c1` [Compound 242, N-(2-Hydroxy-ethyl)-1-[5-(4-isopropyl-pyridin-2-yl)-pyrimidin-2-yl]-N-methyl-spiro[1,2-dihydro-indole-3,1′-cyclopropane]-6-carboxylic acid amide], under 0.1 µM; that for `CN(CCO)C(=O)c1ccc2c(c1)N(c1ncc(-c3cc(F)ccn3)cn1)CC21CC1` [Compound 233, 1-[5-(4-Fluoro-pyridin-2-yl)-pyrimidin-2-yl]-N-(2-hydroxy-ethyl)-N-methyl-spiro[1,2-dihydro-indole-3,1′-cyclopropane]-6-carboxylic acid amide], under 0.1 µM.
Next, `O=C1CN(C(=O)c2ccc3c(c2)N(c2ncc(-c4cc(O)ccn4)cn2)CC32CC2)CCN1` [Compound 265, 4-[1-[5-(4-Hydroxy-pyridin-2-yl)-pyrimidin-2-yl]-spiro[1,2-dihydro-indole-3,1′-cyclopropane]-6-carbonyl]-piperazin-2-one]: under 0.1 µM; `Cc1ccnc(-c2cnc(N3CC4(CC4)c4ccc(C(=O)N5C[C@@H]6C[C@H]5CN6)cc43)nc2)c1` [Compound 297, [(1S,4S)-2,5-Diazabicyclo[2.2.1]heptan-2-yl]-[1-[5-(4-methyl-pyridin-2-yl)-pyrimidin-2-yl]-spiro[1,2-dihydro-indole-3,1′-cyclopropane]-6-yl]-methanone]: under 0.1 µM; `CC(C)c1ccnc(-c2cnc(N3CC4(CC4)c4ccc(C(=O)N5CC[C@@H](N)C5)cc43)nc2)c1` [Compound 331, [(3R)-3-Amino-pyrrolidin-1-yl]-[1-[5-(4-isopropyl-pyridin-2-yl)-pyrimidin-2-yl]-spiro[1,2-dihydro-indole-3,1′-cyclopropane]-6-yl]-methanone]: under 0.1 µM.
As to `C[C@@H](O)CN(C)C(=O)c1ccc2c(c1)N(c1ncc(-c3ccccc3F)cn1)CC21CC1` [Compound 283, 1-[5-(2-Fluorophenyl)-pyrimidin-2-yl)-N-[(2R)-2-hydroxy-propyl]-N-methyl-spiro[1,2-dihydro-indole-3,1′-cyclopropane]-6-carboxylic acid amide], the IC50 is under 0.1 µM.
